{"source": "patent US9901079B2", "about": "“Inhibition of oncogenic kras-induced GM-CSF production and function” (New York University, priority 2011, dated 2018)", "system": "GM-CSF expression in Kras^G12D-PDEC", "assay": "GM-CSF mRNA expression in GFP-Kras^G12D-PDEC after pathway inhibitor treatment (quantitative RT-PCR)", "assay_type": "cell-based, mouse", "settings": "24 hour treatment; U0126 2 μM, LY294002 10 μM (FIG. 3B)", "excerpt": "Data are presented as an average fold induction over values from GFP-WT-PDEC or normal pancreata. Error bars indicate SD (n=3). […] Error bars indicate SD (n=3). […] Data are presented as an average fold induction over values from normal pancreatic tissue. Error bars indicate SD (n=3). FIG. 3D are photomicrographs showing immunohistochemical staining for GM-CSF protein in representative samples of human pancreatic cancer containing PanIN lesions (i-normal duct from adjacent non-malignant tissue; ii-iii PanIN lesions; iv-invasive PDA). White arrowheads indicate pancreatic duct (i), PanIN (ii and iii), and PDA (iv). Scale bars=50 μm. Extraction and reverse transcription of total RNA from PDECs was performed using RNeasy mini kit (QIAGEN) and QuantiTect reverse transcription kit (QIAGEN), respectively. SYBR Green PCR Master Mix (USB) was used for amplification and the samples were run on the Stratagene Mx 3005P. Expression levels were normalized by GAPDH.", "data": [{"compound": "N#CC(=C(/N)Sc1ccccc1N)/C(C#N)=C(\\N)Sc1ccccc1N", "note": "[U0126]", "values": [{"measurement": "GM-CSF expression in Kras^G12D-PDEC", "value": "abrogation of GM-CSF expression"}]}]}
